Measured values reported in US20240246934A1, “QUINAZOLINE-BASED COMPOUND, COMPOSITION, AND APPLICATION OF QUINAZOLINE-BASED COMPOUND” (BEIJING SCITECH-MQ PHARMACEUTICALS LIMITED, priority 2021, published 2024).
Read-outs that look alike come from different tables or passages of the source.

Legend:
[1] = tested on: Ba/F3 ERBB2 A775_G776insYVMA; experiment: Efficacy in nude mouse tumor-bearing model of Ba/F3 ERBB2 A775_G776insYVMA; assay type: in vivo, BALB/c nude mice; conditions: for effect on tumor size (in words): 30 mg/kg PO; for T/C (%): 30 mg/kg, QD×14, PO, day 14
Procedure: In this assay, some compounds of the application were orally administered to a nude mouse tumor-bearing model of Ba/F3 ERBB2 A775_G776insYVMA to study the effect of the compounds of the application on tumor growth.
Preparation of the assay compound: an appropriate weight of the compound to be assayed was weighed, and completely dissolved in an appropriate volume of vehicle (DMSO). The mixture was vortexed or sonicated. Then an appropriate amount of Solutol was added and mixed well. Finally, sterilized drinking water was added and the mixture was mixed by stirring or vortexing to obtain a homogeneous solution or suspension.
Method: All the assays were authorized and agreed by the Animal Welfare Committee. Ba/F3 ERBB2 A775_G776insYVMA in a logarithmic growth period was inoculated subcutaneously into the right back of immunodeficient nude mice (BALB/c nude, female, 6-7 weeks of age, body weight 18±2 g) with 4×10^6 cells/rat. After the tumor grew to 150-200 mm^3, the animals were randomly divided into a treatment group and a control group. For the treatment group, a solution of each assay compound was given, and for the control group, a vehicle solution without the assay compound was given. Both of the treatment group and the control group were administered once a day for about 2 weeks. The dose of each assay article was 30 mg/kg (in terms of effective compound concentration), and the assay compounds were all prepared freshly for use. During the assay, the diameter of loaded tumors was measured twice a week, and the mice were weighed at the same time. The tumor volume (TV) was calculated by the formula: TV=½×a×b^2, where a and b denote length and width, respectively. Relative tumor volume (RTV) was calculated based on the measured results by the formula: RTV=Vt/V0, where V0 is the tumor volume measured at grouping and administration and Vt is the tumor volume at each measurement. The evaluation index of antitumor activity was the relative tumor proliferation rate T/C (%) calculated by the formula: T/C (%)=(TRTV/CRTV)×100%, TRTV: RTV of the administration group; CRTV: RTV of the control group. T and C denote the average tumor volume at a certain time point in the administration group and the control group, respectively.

[2] = Brain tissue and whole blood concentration in SD rats after oral administration; assay type: in vivo; conditions: rat, PO 10 mg/kg, 2 h after administration; for Kp at 2 h: brain / whole blood, read-out: Brain tissue/blood ratio
Procedure: In this assay, the pharmacokinetic characteristics of the compounds of the present application were assayed after administration of some of the compounds of the present application to SD rats by single oral administration and intravenous injection.
2. […] The mixture was stirred, vortexed and/or sonicated. Once a solution was obtained, the vehicle was gradually added to a final volume to reach the target concentration. The solution was vortexed, and sonicated to obtain a homogeneous solution.
Meanwhile, the IV group was not fasted and the PO group was fasted overnight (>12 hrs) and given food 2 hrs after drug administration. All animals had free access to water. The dosing regimen and pharmacokinetic sampling regimen are given in Table 6 and Table 7 below, respectively.
Rats were administered according to the above regimen, and blood and brain tissue samples were collected and processed at predetermined time points (collection and processing were performed according to conventional methods in the art).
The supernatant was diluted 2-fold with ultra-pure water, and the samples were analyzed by LC/MS.
Brain tissues were weighed and homogenized by adding 4-fold homogenizing solution (acetonitrile/water=1/1 v/v). […] The supernatant was diluted 2-fold with ultra-pure water, and the samples were analyzed by LC/MS.

[3] = target: Ba/F3 HER2 A775_G776insYVMA cells (Homo sapiens, UniProt P04626, DUP772-775, cells depend on it); experiment: Inhibition of cell proliferation, CTG method, Ba/F3 HER2 A775_G776insYVMA; assay type: cell-based
Chain of Ba/F3 HER2 A775_G776insYVMA cells (P04626 with tags, fused parts or gaps DUP772-775): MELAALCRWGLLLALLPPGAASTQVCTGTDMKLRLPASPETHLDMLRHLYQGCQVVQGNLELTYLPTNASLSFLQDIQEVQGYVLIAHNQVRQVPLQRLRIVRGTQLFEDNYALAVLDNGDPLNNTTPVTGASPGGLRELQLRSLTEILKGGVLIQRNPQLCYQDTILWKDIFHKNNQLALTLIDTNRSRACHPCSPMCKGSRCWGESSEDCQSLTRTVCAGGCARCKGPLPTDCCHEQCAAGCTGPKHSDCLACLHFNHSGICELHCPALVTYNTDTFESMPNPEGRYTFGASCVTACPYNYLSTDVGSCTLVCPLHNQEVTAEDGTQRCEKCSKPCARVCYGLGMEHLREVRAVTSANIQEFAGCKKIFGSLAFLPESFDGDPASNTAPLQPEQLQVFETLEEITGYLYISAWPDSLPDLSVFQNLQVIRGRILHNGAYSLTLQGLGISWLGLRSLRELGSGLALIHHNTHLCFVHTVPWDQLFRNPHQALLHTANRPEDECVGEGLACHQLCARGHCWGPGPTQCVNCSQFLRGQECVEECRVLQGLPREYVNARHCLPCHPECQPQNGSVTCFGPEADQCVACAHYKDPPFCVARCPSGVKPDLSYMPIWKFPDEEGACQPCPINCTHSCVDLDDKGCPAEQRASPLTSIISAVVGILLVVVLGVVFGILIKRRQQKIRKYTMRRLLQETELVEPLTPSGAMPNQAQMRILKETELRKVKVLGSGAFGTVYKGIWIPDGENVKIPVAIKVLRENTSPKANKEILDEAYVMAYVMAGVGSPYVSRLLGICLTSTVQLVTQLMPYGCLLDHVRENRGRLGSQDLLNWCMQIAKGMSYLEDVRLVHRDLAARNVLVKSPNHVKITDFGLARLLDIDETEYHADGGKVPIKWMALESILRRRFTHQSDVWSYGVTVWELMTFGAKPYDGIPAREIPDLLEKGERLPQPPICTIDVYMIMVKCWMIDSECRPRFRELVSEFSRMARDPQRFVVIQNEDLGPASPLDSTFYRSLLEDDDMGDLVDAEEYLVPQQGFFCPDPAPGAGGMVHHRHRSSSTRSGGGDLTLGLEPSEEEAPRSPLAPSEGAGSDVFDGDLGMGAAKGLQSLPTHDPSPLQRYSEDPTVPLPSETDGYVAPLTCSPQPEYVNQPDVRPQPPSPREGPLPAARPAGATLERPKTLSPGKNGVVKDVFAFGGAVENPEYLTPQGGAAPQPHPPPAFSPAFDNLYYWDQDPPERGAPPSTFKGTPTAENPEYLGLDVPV
Summary of the method: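 Ba/F3 HER2 A775_G776insYVMA cells in RPMI1640 with 10% FBS were plated at 3000 cells/well and treated directly with compound (top 10 μM, 4-fold, 9 concentrations, duplicates).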

[4] = Pharmacokinetics in SD rats, single intravenous injection and oral administration; assay type: in vivo, SD rat; conditions: for bioavailability: PO 10 mg/kg vs IV 3 mg/kg, read-out: F % (bioavailability)
Procedure: In this assay, the pharmacokinetic characteristics of the compounds of the present application were assayed after administration of some of the compounds of the present application to SD rats by single oral administration and intravenous injection. 1. […] The mixture was stirred, vortexed and/or sonicated. Once a solution was obtained, the vehicle was gradually added to a final volume to reach the target concentration. The solution was vortexed, and sonicated to obtain a homogeneous solution. The solution was filtered through a 0.22 μm PVDF membrane. 2. […] The mixture was stirred, vortexed and/or sonicated. Once a solution was obtained, the vehicle was gradually added to a final volume to reach the target concentration. The solution was vortexed, and sonicated to obtain a homogeneous solution. […] Meanwhile, the IV group was not fasted and the PO group was fasted overnight (>12 hrs) and given food 2 hrs after drug administration. All animals had free access to water. The dosing regimen and pharmacokinetic sampling regimen are given in Table 6 and Table 7 below, respectively. […] Rats were administered according to the above regimen, and blood and brain tissue samples were collected and processed at predetermined time points (collection and processing were performed according to conventional methods in the art). […] The supernatant was diluted 2-fold with ultra-pure water, and the samples were analyzed by LC/MS. Pharmacokinetic parameters was calculated using WinNonlin software. The following pharmacokinetic parameters was calculated from the plasma drug concentration-time data: CL (clearance); Vd (apparent volume of distribution); T1/2 (elimination half-life time); Cmax (peak concentration); Tmax (time to peak); AUC (area under plasma drug concentration-time curve); MRT (mean retention time); F % (bioavailability).

[5] = whole blood, read-out: Blood drug concentration
[6] = brain, NA: Exposure was too low to be counted, read-out: Brain tissue concentration
[7] = SD, rat, in vivo, PO 10 mg/kg, NA: Exposure was too low to be counted
[8] = SD, rat, whole blood, IV 3 mg/kg
[9] = SD, rat, whole blood, NA: Exposure was too low to be counted
[10] = SD, rat, whole blood, PO 10 mg/kg, NA: Exposure was too low to be counted

SMILES | effect on tumor size (in words) [1] | T/C (%) [1] [%] | concentration at 2 h [2, 5] [ng/mL] | Kp at 2 h [2] | concentration at 2 h [2, 6] [ng/g] | Cl_obs ([4]; IV 3 mg/kg) [mL/min/kg] | AUC(0-inf) [4, 8] [ng·h/mL] | Vd [4, 8] [L/kg] | bioavailability [4, 9] [%] | AUC(0-inf) [4, 10] [ng·h/mL] | also measured
CCOc1cc2ncc(C#N)c(Nc3ccc(OCc4ccccn4)c(Cl)c3)c2cc1NC(=O)/C=C/CN(C)C [NERATINIB, neratinib, reference compound] | still remain significant growth | 45.9 | 440 | 0.0366 | 14.4 | 20.8 ± 2.0 | 2420 ± 252 | 7.94 ± 1.71 | 18.2 ± 7.89 | 1470 ± 638 | GI50 ([3]; read-out: Ba/F3 HER2 A775-G776insYVMA IC50, 72 hours): 10 to 100 nM; AUC(0-t) ([4]; SD, rat, in vivo, IV 3 mg/kg): 2390 ± 267 ng·h/mL; half-life ([4]; SD, rat, in vivo, IV 3 mg/kg): 4.38 ± 0.55 h; AUC(0-t) [4, 7]: 1470 ± 637 ng·h/mL; Cmax [4, 7]: 201 ± 66 ng/mL; half-life [4, 7]: 2.97 ± 0.27 h
CCOc1cc2ncc(C#N)c(Nc3ccc(OCc4ccccn4)c(Cl)c3)c2cc1NC(=O)/C=C/[C@H]1CCCN1C [PYROTINIB, pyrotinib, reference compound] | still remain significant growth | 38.3 | 884 | 0.0291 | 25.8 | 6.04 ± 0.63 | 8340 ± 890 | 1.81 ± 0.26 | 10.1 ± 4 | 2810 ± 1110 | GI50 ([3]; 72 hours, read-out: Ba/F3 HER2 A775-G776insYVMA IC50): 10 to 100 nM; AUC(0-t) [4, 8]: 8310 ± 892 ng·h/mL; half-life [4, 8]: 3.45 ± 0.24 h; AUC(0-t) [4, 10]: 2790 ± 1110 ng·h/mL; Cmax [4, 10]: 246 ± 76 ng/mL; Tmax [4, 10]: 4.33 ± 2.52 h; half-life [4, 10]: 3.6 ± 0.37 h
